In patent US20040235792A1, “Serine protease inhibitors compromising a hydrogen-bond acceptor” (priority 2001, published 2004):

Key:
Assay type in all cases: biochemical
FIXa = target: T1, FIXa (Homo sapiens, UniProt P00740); assay: Score assay, FIXa (chromogenic substrate Pefachrome IXa); parameters: key: fold increase in inhibitor conc / inhibitor conc used (mM); details: Score = fold increase in inhibitor concentration / concentration of inhibitor used (in mM), 37° C., pH 7.4
T1 construct: FIXa was obtained from Haematologics; purchased Haematologics
T1 sequence (P00740 227-461 limits assumed): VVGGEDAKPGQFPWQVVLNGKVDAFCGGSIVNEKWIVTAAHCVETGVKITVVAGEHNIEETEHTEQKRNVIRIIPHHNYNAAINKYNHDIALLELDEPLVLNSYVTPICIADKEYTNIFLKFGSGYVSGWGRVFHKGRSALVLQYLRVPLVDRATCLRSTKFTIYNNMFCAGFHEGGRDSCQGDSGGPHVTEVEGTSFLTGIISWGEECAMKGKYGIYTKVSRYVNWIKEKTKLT
T1 sequence (P00740 47-191 partner limits assumed): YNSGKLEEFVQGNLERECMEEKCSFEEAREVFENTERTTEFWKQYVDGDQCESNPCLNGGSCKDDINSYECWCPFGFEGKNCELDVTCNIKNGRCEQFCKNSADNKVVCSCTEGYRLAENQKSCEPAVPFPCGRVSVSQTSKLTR
Experimental: (§1) Score gives a facile measure of the effectiveness of an inhibitor requiring only one or two data points, rather than the twelve or more data points required to calculate an IC50.
(§2) The principle behind calculating the score is that, although the absolute values obtained from inhibitors of the same type may be different, the shape and range of the IC50 curves are quite similar.
(§3) Molecular Devices Corp. Thermomax plate reader.
Pefachrome IXa (Kordia, for FIXa)
(§4) Buffer for FIXa assay: 50 mM Tris; 100 mM sodium chloride; 0.5% PEG 6000, pH 7.4. The aqueous buffer was freshly mixed each day with ethylene glycol (65%:35% respectively) Human α-thrombin was obtained from J. Freysinnet (Strasbourg).
FIXa was obtained from Haematologics.
FIXa (50 μl of a stock at 0.01 mg/ml) is added.
(§5) The data from IC50 curves for 13 compounds were used to construct an average IC50 curve.
(§6) The average values for the fold increase at each 10% step are shown below:
(§7) Measurement of single concentrations of inhibitor on a plate reader (using MDC ‘Softmax’ software) gave a value from 9 to 0 when compared to a control without inhibitor which corresponds to the % inhibition a shown in Table 1. Provided that the plate reader number was >2 but <8 (linear part of the graph) the score could then be calculated as follows.
(§8) Score=fold increase in inhibitor concentration (see table 1)/concentration of inhibitor used (in mM)

UK (urokinase) = UK (urokinase) (Homo sapiens, UniProt P00749); assay: Score assay, UK (chromogenic substrate S-2444); parameters: key: score = fold increase in inhibitor conc / inhibitor conc used (mM); details: Table 3, substrate 125 μM
Excerpt: as §1, §2, §3
S-2444 (pyro-Glu-Gly-Arg-pNa for UK) was obtained from Quadratech.
(§9) Buffer for Thr, Try, Pla, UK or Xa assay: 0.1M sodium phosphate; 0.2M sodium chloride; 0.5% PEG6000; 0.02% sodium azide, pH 7.4.
(§10) Final Substrates Concentrations were 25 μM, 113 μM, 22 μM and 125 μM for Try, Pla, Xa and UK Respectively.
as §5, §6, §7, §8

Try (trypsin) = Try (trypsin) (Homo sapiens, UniProt P07477); assay: Score assay, Try (chromogenic substrate S-2288); parameters: key: score = fold increase in inhibitor conc / inhibitor conc used (mM); details: Table 3, substrate 25 μM
Excerpt: as §1, §2, §3
S-2288 (H-D-Ileu-Pro-Arg-pNa for Try) was obtained from Quadratech.
as §9, §10, §5, §6, §7, §8

Xa (factor X activated) = Xa (factor X activated) (Homo sapiens, UniProt P00742); assay: Score assay, Xa (chromogenic substrate S-2765); parameters: key: score = fold increase in inhibitor conc / inhibitor conc used (mM); details: Table 3, substrate 22 μM
Xa (factor X activated), sequence (P00742 235-488 limits assumed): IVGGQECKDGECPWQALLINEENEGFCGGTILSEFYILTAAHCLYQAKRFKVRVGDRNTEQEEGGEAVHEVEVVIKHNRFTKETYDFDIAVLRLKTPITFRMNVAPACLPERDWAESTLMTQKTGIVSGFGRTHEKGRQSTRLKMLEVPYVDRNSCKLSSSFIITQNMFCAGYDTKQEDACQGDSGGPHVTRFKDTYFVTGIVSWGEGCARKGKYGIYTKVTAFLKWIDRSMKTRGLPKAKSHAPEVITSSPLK
Xa (factor X activated), sequence (P00742 41-179 partner limits assumed): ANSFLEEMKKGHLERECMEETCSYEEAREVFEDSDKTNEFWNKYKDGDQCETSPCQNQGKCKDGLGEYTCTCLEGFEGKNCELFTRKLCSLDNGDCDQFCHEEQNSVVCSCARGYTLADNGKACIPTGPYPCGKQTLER
Excerpt: as §1, §2, §3
S-2765 (N-α-Z-D-ArgGly-Arg-pNa for Xa) was obtained from Quadratech.
as §9, §10, §5, §6, §7, §8

Human α-thrombin = target: T2, Human α-thrombin (Homo sapiens, UniProt P00734); assay: Score assay, Thr (chromogenic substrate S-2238); details: Score = fold increase in inhibitor concentration / concentration of inhibitor used (in mM), 37° C., pH 7.4
T2 construct: Human α-thrombin was obtained from J. Freysinnet (Strasbourg); purchased J. Freysinnet (Strasbourg)
Excerpt: as §1, §2, §3
S-2238 (H-D-Phe-Pip-Arg-pNA, for Thr) was obtained from Quadratech.
as §9, §4
Inhibitor (100 μl of dilution in buffer of 1/20 or higher as appropriate from stock in DMSO) is added to substrate (50 μl of a dilution of 1/100 of 2.4 mg/ml stock) for 2 minutes at 37° C. Thr (50 μl of a dilution of {fraction (1/10,000)} of stock at 1 mg/ml) is added.
as §5, §6, §7, §8

Pla (plasmin) = Pla (plasmin) (Homo sapiens, UniProt P00747); assay: Score assay, Pla (chromogenic substrate S-2251); details: Table 3, substrate 113 μM
Pla (plasmin), sequence (P00747 581-810 limits assumed, species assumed): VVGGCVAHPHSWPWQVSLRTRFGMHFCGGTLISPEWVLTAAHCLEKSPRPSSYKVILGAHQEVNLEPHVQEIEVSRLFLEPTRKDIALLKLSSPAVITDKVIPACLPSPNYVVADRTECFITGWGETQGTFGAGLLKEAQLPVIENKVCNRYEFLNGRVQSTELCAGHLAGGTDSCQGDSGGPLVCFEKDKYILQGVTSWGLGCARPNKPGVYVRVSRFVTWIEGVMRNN
Pla (plasmin), sequence (P00747 97-580 partner limits assumed, species assumed): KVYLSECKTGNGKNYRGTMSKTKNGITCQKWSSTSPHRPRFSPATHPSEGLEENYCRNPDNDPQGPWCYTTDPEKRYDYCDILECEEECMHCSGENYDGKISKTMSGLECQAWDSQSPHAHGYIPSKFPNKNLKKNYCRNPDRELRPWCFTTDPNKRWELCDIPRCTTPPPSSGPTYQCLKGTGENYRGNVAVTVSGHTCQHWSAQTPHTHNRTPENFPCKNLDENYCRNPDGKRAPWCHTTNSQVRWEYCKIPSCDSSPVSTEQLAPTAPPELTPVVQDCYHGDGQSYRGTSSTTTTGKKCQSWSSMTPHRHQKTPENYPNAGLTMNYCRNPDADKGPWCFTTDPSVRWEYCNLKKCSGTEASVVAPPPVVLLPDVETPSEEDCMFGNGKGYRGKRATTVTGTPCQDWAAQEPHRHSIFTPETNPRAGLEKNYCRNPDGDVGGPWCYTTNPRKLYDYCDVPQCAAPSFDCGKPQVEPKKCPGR
Excerpt: as §1, §2, §3
S-2251 (H-D-Val-Leu-Lys-pNa for Pla) was obtained from Quadratech.
as §9, §10, §5, §6, §7, §8

[1] = Table 1 comparators, single concentration, higher = more effective
[2] = Table 1 comparators, single concentration

Structure (SMILES) | FIXa score (FIXa; Table 3) | UK (score) (UK (urokinase)) | Try (score) (Try (trypsin)) | Xa (score) (Xa (factor X activated)) | Thr Score (Human α-thrombin; Table 3) | Pla (score) (Pla (plasmin)) | FIXa score (FIXa; [1]) | Thr Score (Human α-thrombin; [2])
N=C(N)SCc1cc(CSC(=N)N)cc(B(O)O)c1 [compound 968] | 59.6 | 880 | 640 | 1862 | 1215 | 640 |  | 
N#Cc1cccc(Oc2ccc(B(O)O)cc2CSC(=N)N)c1 [compound 1069] | 229 |  |  |  | 4156 |  |  | 
CC1(C)OB(c2ccc(Oc3ccc(Oc4ccccc4)cc3)c(CSC(=N)N)c2)OC1(C)C [compound 1056] | 626 |  |  |  | 455 |  |  | 
COc1cccc(Oc2ccc(B3OC(C)(C)C(C)(C)O3)cc2CSC(=N)N)c1 [compound 1058] | 97 |  |  |  | 666 |  |  | 
CC1(C)OB(c2ccc(Oc3ccccc3)c(CSC(=N)N)c2)OC1(C)C [compound 1055] | 291 |  |  |  | 2768 |  |  | 
Br.Cc1ccc(I)cc1NC(=N)NC(=N)N [compound 930] |  |  |  |  |  |  | 0.6 | 0
N=C(N)SCc1cccc([N+](=O)[O-])c1 [compound 896] | 2 | 3 | 4 | 4 | 295 | 2 |  | 
CC1(C)OB(c2ccc(Oc3cccc(Cl)c3)c(CSC(=N)N)c2)OC1(C)C [compound 1057] | 157 |  |  |  | 572 |  |  | 
Br.N=C(N)NC(=N)Nc1ccc(I)cc1 [compound 932] |  |  |  |  |  |  | 0.3 | 0
CN=C(N)SCc1cccc(B(O)O)c1 [compound 903] | 19 | 27 | 21 | 39 | 38.7 | 21 |  | 
Br.N=C(N)SCc1cccc(I)c1 [compound 885] |  |  |  |  |  |  | 0.6 | 10
CC(C)Cc1ccc(Oc2ccc(B3OC(C)(C)C(C)(C)O3)cc2CSC(=N)N)cc1 [compound 1059] | 285 |  |  |  | 1959 |  |  | 
CC(C)(C)OC(=O)N=C(N)N(Cc1cccc(B2OC(C)(C)C(C)(C)O2)c1)C(=O)OC(C)(C)C [compound 970] | 80 |  |  |  | 12 |  |  | 
CC(SC(=N)N)c1cccc(B2OC(C)(C)C(C)(C)O2)c1 (centres unmarked) [compound 974] | 64 | 934 | 324 | 680 | 6769 | 324 |  | 
COc1ccc(CSC(=N)N)cc1B1OC(C)(C)C(C)(C)O1 [compound 973] | 32 | 1210 | 167 | 167 | 1210 | 121 |  | 
CC1(C)OB(c2cccc(CSC(=N)N)c2)OC1(C)C [compound 852] | 76 | 792 | 624 | 624 | 326 | 393 |  | 
N=C(N)SCc1cc(B(O)O)ccc1Oc1ccc(C(=O)c2ccccc2)cc1 [compound 1072] | 746 |  |  |  | 1410 |  |  | 
CC1(C)OB(c2cccc(CNC(=N)N)c2)OC1(C)C [compound 1006] | 46 | 70 | 37 | 51 | 106 | 27 |  | 
N=C(N)SCc1cc(B(O)O)ccc1Oc1ccccc1 [compound 977] | 306 | 583 | 583 | 889 | 333 | 583 |  | 
N=C(N)SCc1ccccc1B(O)O [compound 865] | 5.4 | 26 | 7 | 7 | 70 | 3 |  | 
N=C(N)SCc1cc(B(O)O)ccc1Oc1ccc2c(c1)CCCC2 [compound 1070] | 346 |  |  |  | 2174 |  |  | 
Br.N=C(N)NC(=N)Nc1cc(F)cc(F)c1Br [compound 929] |  |  |  |  |  |  | 1.6 | 0
Br.CC(C)c1ccc(NC(=N)NC(=N)N)c(Br)c1 [compound 931] |  |  |  |  |  |  | 0.8 | 7.7
Br.COC(=O)c1cccc(CSC(=N)N)c1 [compound 887] |  |  |  |  |  |  | 0.9 | 5.3
N=C(N)SCc1cccc(B(O)O)c1 [compound 864] | 209 | 776 | 868 | 868 | 421 | 289 |  | 
CC1(C)OB(c2ccccc2CSC(=N)N)OC1(C)C [compound 832] | 7 | 26 | 7 | 7 | 70 | 1 |  | 
CC1(C)OB(c2ccc(N3CCN(c4ccccn4)CC3)c(CSC(=N)N)c2)OC1(C)C [compound 1031] | 39.0 |  |  |  | 15(*) |  |  | 
Cc1cc(CSC(=N)N)cc(B(O)O)c1 [compound 967] | 205 | 785 | 3 | 905 | 1645 | 312 |  | 
CC(=O)NNC(=N)SCc1cccc(B(O)O)c1 [compound 915] | 10.1 | 4 | 2 | 1 | 2.0 | 1 |  | 
N=C(N)SCc1ccc(B(O)O)cc1 [compound 866] | 6.4 | 3076 | 440 | 6 | 6.4 | 32 |  | 
